Reference: ChEMBL document CHEMBL5252598, “Armeniaspirol analogues disrupt the electrical potential (ΔΨ) of the proton motive force” (Bioorg Med Chem Lett, 2023)
≈ marks a conversion by molar mass, not a printed value. Calls of active or inactive are those of the source. The rule behind the calls is not given here.

Tests used:
Staphylococcus aureus = assay: Antibacterial activity against Staphylococcus aureus USA300 assessed as bacterial growth inhibition by checkerboard assay; assay type: functional
Cell membrane [1] = assay: Induction of membrane depolarization in methicillin-resistant Staphylococcus aureus USA300 by […] dye-based fluorescence assay; assay type: subcellular
Cell membrane [2] = assay: Induction of membrane depolarization in methicillin-resistant Staphylococcus aureus USA300 assessed as measuring minimum effective concentration by DiSC3(5) dye-based fluorescence assay
Cell membrane [3] = assay: Induction of membrane depolarization in methicillin-resistant Staphylococcus aureus USA300 assessed as disruption of transmembrane electrical potential by DiSC3(5) dye-based fluorescence assay
Escherichia coli [4] = assay: Antibacterial activity against Escherichia coli harbouring TolC-deficient mutant assessed as fractional inhibitory concentration in presence of tetracycline by checker board assay; assay type: functional
Escherichia coli [5] = assay: Antagonistic antibacterial activity against Escherichia coli harbouring TolC-deficient mutant assessed as fractional inhibitory concentration in presence of kanamycin by checker board assay; assay type: functional
Bacteria [6] = assay: Inhibition of ATP-dependent ClpYQ proteases (unknown origin)
Bacteria [7] = assay: Inhibition of ATP-dependent ClpXP proteases (unknown origin)
Cell membrane [8] = assay: Induction of membrane depolarization in methicillin-resistant Staphylococcus aureus USA300 assessed as disruption of transmembrane proton gradient by DiSC3(5) dye-based fluorescence assay

With `CCCCCCCCCCCCN1C(=O)C(Cl)=C(Cl)C12Oc1c(cc(Cl)c(O)c1CCCCCC)C2=O` (stereo not drawn) the MIC (Staphylococcus aureus) was 16 µg/mL, the EC50 (Cell membrane [1]) was > 8 µg/mL and the MEC (Cell membrane [2]) was > 1 µg/mL.

In the case of `CC(C)[C@@H]1NC(=O)[C@H](C)OC(=O)[C@@H](C(C)C)NC(=O)[C@@H](C(C)C)OC(=O)[C@H](C(C)C)NC(=O)[C@H](C)OC(=O)[C@@H](C(C)C)NC(=O)[C@@H](C(C)C)OC(=O)[C@H](C(C)C)NC(=O)[C@H](C)OC(=O)[C@@H](C(C)C)NC(=O)[C@@H](C(C)C)OC1=O`, the Activity (Cell membrane [3]) is reported as “Active”.

With `Cc1c(O)c(Cl)cc2c1OC1(C2=O)C(Cl)=C(Cl)C(=O)N1Cc1ccccc1` (stereo not drawn) the MIC (Staphylococcus aureus) was 32 µg/mL, the EC50 (Cell membrane [1]) was 3.2 µg/mL (≈ 7.54 µM) and the MEC (Cell membrane [2]) was 4 µg/mL.

`Cc1c(O)c(Cl)cc2c1OC1(C2=O)C(Cl)=C(Cl)C(=O)N1Cc1ccc(C(F)(F)F)cc1` (stereo not drawn) gave an MIC (Staphylococcus aureus) of 16 µg/mL, an EC50 (Cell membrane [1]) of 2.45 µg/mL (≈ 4.97 µM) and an MEC (Cell membrane [2]) of 2 µg/mL.

In the case of `Cc1c(O)c(Cl)cc2c1OC1(C2=O)C(Cl)=C(Cl)C(=O)N1C` (stereo not drawn), the MIC (Staphylococcus aureus) is reported as > 32 µg/mL, the EC50 (Cell membrane [1]) is reported as > 8 µg/mL and the MEC (Cell membrane [2]) is reported as 8 µg/mL.

`CCCCCCc1c(O)c(Cl)cc2c1OC1(C2=O)C(Cl)=C(Cl)C(=O)N1Cc1ccccc1` (stereo not drawn) was tested, and the MIC (Staphylococcus aureus) was 1 µg/mL, the EC50 (Cell membrane [1]) was 0.39 µg/mL (≈ 0.788 µM) and the MEC (Cell membrane [2]) was 0.5 µg/mL.

For `CCCCCCc1c(O)c(Cl)cc2c1OC1(C2=O)C(Cl)=C(Cl)C(=O)N1C` (stereo not drawn), the Activity (Cell membrane [3]) was “Active”, the FIC (Escherichia coli [4]) was 0.656 and the MIC (Staphylococcus aureus) was 4 µg/mL. The EC50 (Cell membrane [1]) was 0.42 µg/mL (≈ 1 µM), the FIC (Escherichia coli [5]) was >4 and the MEC (Cell membrane [2]) was 0.5 µg/mL.

`CCCCCCc1c(O)c(Cl)cc2c1OC1(C2=O)C(Cl)=C(Cl)C(=O)N1CCc1ccccc1` (stereo not drawn) gave an MIC (Staphylococcus aureus) of 0.5 µg/mL, an EC50 (Cell membrane [1]) of 0.12 µg/mL (≈ 0.236 µM) and an MEC (Cell membrane [2]) of 0.125 µg/mL.

With `CCCCCCc1c(OC)c(Cl)cc2c1OC1(C2)NC(=O)C(Cl)=C1Cl` (stereo not drawn) the Activity (Cell membrane [3]) was “Active”.

Compound `CCCCCCCCCCCCN1C(=O)C(Cl)=C(Cl)C12Oc1c(cc(Cl)c(O)c1C)C2=O` (stereo not drawn) has an MIC (Staphylococcus aureus) of 1 µg/mL, an EC50 (Cell membrane [1]) of 0.28 µg/mL (≈ 0.557 µM) and an MEC (Cell membrane [2]) of 0.25 µg/mL.

For `CCCCCCc1c(OC)c(Cl)cc2c1OC1(C2=O)C(Cl)=C(Cl)C(=O)N1CCCCCC` (stereo not drawn), the inhibition (Bacteria [6]) was “inactive”, the MIC (Staphylococcus aureus) was 4 µg/mL and the EC50 (Cell membrane [1]) was 0.54 µg/mL (≈ 1.07 µM). For the same compound, the MEC (Cell membrane [2]) was 0.125 µg/mL and the inhibition (Bacteria [7]) was “inactive”.

With `CCCCCCN1C(=O)C(Cl)=C(Cl)C12Oc1c(cc(Cl)c(O)c1C)C2=O` (stereo not drawn) the MIC (Staphylococcus aureus) was 4 µg/mL, the EC50 (Cell membrane [1]) was 0.17 µg/mL (≈ 0.406 µM) and the MEC (Cell membrane [2]) was 0.5 µg/mL.

With `CO[C@@H]1C[C@@H](C[C@H]2CC[C@H](C)[C@H]([C@@H](C)C(=O)O)O2)O[C@]2(O[C@](C)([C@H]3CC[C@@](C)([C@@H]4O[C@@H]([C@H]5O[C@@](O)(CO)[C@H](C)C[C@@H]5C)C[C@@H]4C)O3)C[C@H]2C)[C@@H]1C` the Activity (Cell membrane [8]) was “Active”.

With `CCCCCCc1c(O)c(Cl)cc2c1OC1(C2=O)C(Cl)=C(Cl)C(=O)N1Cc1ccc(C)cc1` (stereo not drawn) the MIC (Staphylococcus aureus) was 0.5 µg/mL, the EC50 (Cell membrane [1]) was 0.07 µg/mL (≈ 0.138 µM) and the FIC (Escherichia coli [5]) was >4. It also gave an MEC (Cell membrane [2]) of 0.125 µg/mL.

With `C=CCN1C(=O)C(Cl)=C(Cl)C12Oc1c(cc(Cl)c(O)c1C)C2=O` (stereo not drawn) the MIC (Staphylococcus aureus) was > 32 µg/mL, the EC50 (Cell membrane [1]) was > 8 µg/mL and the MEC (Cell membrane [2]) was 8 µg/mL.

`CCCCCCc1c(O)c(Cl)cc2c1OC1(C2=O)C(Cl)=C(Cl)C(=O)N1CCCCCC` (stereo not drawn) was tested, and the MIC (Staphylococcus aureus) was 1 µg/mL, the EC50 (Cell membrane [1]) was 0.07 µg/mL (≈ 0.143 µM) and the FIC (Escherichia coli [5]) was >4. The MEC (Cell membrane [2]) was 0.0312 µg/mL.

`CCCCCCc1c(OC)c(Cl)cc2c1OC1(C2=O)C(Cl)=C(Cl)C(=O)N1C` (stereo not drawn) was tested, and the MIC (Staphylococcus aureus) was > 32 µg/mL, the EC50 (Cell membrane [1]) was 2.04 µg/mL (≈ 4.71 µM) and the MEC (Cell membrane [2]) was 4 µg/mL.

Compound `C=CCN1C(=O)C(Cl)=C(Cl)C12Oc1c(cc(Cl)c(O)c1CCCCCC)C2=O` (stereo not drawn) has an MIC (Staphylococcus aureus) of 4 µg/mL, an EC50 (Cell membrane [1]) of 0.23 µg/mL (≈ 0.517 µM) and an MEC (Cell membrane [2]) of 0.25 µg/mL.

Work on `CCCCCCc1c(O)c(Cl)cc2c1OC1(C2=O)C(Cl)=C(Cl)C(=O)N1Cc1ccc(C(F)(F)F)cc1` (stereo not drawn) yielded an MIC (Staphylococcus aureus) of 2 µg/mL, an EC50 (Cell membrane [1]) of 0.3 µg/mL (≈ 0.533 µM) and an MEC (Cell membrane [2]) of 0.125 µg/mL.
